Laboratory results reported in US5455255A, “2-(2,3,5,6-tetrafluoro-4-pyridyl)-1,2-benzisothiazol-3(2H)-one 1,1-dioxides and compositions and method of use thereof” (Sterling Winthrop Inc., priority 1994, dated 1995).
pKi: −log10 of the molar value.

Target: T1, human leukocyte elastase (Homo sapiens, UniProt P08246)
T1 sequence (P08246 30-267): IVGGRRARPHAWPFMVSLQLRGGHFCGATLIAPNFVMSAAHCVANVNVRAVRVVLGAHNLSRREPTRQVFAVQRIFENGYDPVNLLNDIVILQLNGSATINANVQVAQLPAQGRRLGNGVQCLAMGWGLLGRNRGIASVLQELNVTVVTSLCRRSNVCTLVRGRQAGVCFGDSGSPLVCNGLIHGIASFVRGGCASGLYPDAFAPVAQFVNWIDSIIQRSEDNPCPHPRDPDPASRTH
Assay: Human leukocyte elastase (HLE) inhibition, progress-curve assay with MeOSuc-Ala-Ala-Pro-Val-pNA
Format: biochemical
Details: substrate MeOSuc-Ala-Ala-Pro-Val-pNA, pH 7.8, 25° C., absorbance 410 nm, read-out: Ki (human leukocyte elastase inhibitory activity)
Description: The test compound (inhibitor) is dissolved in DMSO in a vial to produce an inhibitor stock solution which has a concentration in the range of 200-1000 μM. The inhibitor stock solution is diluted (1:4, 1:16 and 1:64) into assay vials (vials 1, 2 and 3 respectively) containing 2.4 mL of buffer solution (50 mM N-[2-hydroxyethyl] piperazine-N'-[2-ethanesulfonic acid]/NaOH, 500 mM NaCl, pH 7.8 at 25° C.) and DMSO is added so that the total volume in each vial is 3.2 mL. 70 μL, 50 μL, 35 μL and 25 μL of inhibitor from assay vial 1 is placed into the first four wells of a 96-well microtiter plate and each well is made up to 90 μL total volume with the addition of a 25% DMSO/buffer solution. The inhibitor from assay vials 2 and 3 is processed in a similar manner and placed in wells 5-12 respectively to afford a total of 12 different inhibitor concentrations. Four wells (wells 13-16) containing 90 μL of the 25% DMSO/buffer solution but no inhibitor are also run simultaneously with the inhibited wells as a control. 150 μL of substrate solution (prepared by the addition of 500 μL of the human leukocyte elastase (HLE) substrate MeOSuc-Ala-Ala-Pro-Val-pNA (18.7 mM in DMSO) to 19.5 mL of buffer solution) was then added simultaneously into each of the 16 wells and the solution in each well was thoroughly mixed.
The 96-well microtiter plate was placed into a Microplate Reader #89815A spectrophotometer 110 μL of the enzyme solution (prepared as follows: a mixture of 20 mL of buffer solution and 20 mg of bovine serum albumen is gently vortexed in a scintillation vial and 5 μL HLE stock solution (1 mg/mL dissolved in deionized water) is added simultaneously to each of the 16 wells. Each of the solutions in the wells is throughly mixed and then the time-dependent absorbance data is collected at an absorbance of 410 nm until the assay is complete. It should be noted that although this assay method can be done manually, it is preferred to perform the assay robotically using a Hewlett Packard MicroAssay System Robot.
A plot of the absorbance versus time data thus obtained affords progress curves the final slope of which is equal to the final steady-state velocities (VF). Using the program. ENZFITTER (Elsevier software), the progress curves for the four control assays ([I]=O) are fit by linear regression to yield the enzyme reaction velocity values in the absences of inhibitor (Vo) which are averaged to produce a single fixed value. The inhibition constant Ki (nM) is then obtained from a plot of [formula] which affords a linear plot wherein: [formula] and [S] is the concentration of the substrate and Km is the Michaelis constant.
Table IV summarizes the results obtained from the testing of representative compounds of the invention for human leukocyte elastase inhibitory activity.

| SMILES | pKi |
| --- | --- |
| O=C1c2ccccc2S(=O)(=O)N1c1c(F)c(F)nc(F)c1F [Example 1, 2-(2,3,5,6-tetrafluoro-4-pyridyl)-1,2-benzisothiazol-3(2H)-one 1,1-dioxide] | 7.70 |
| COc1cc(C(C)C)c2c(c1)S(=O)(=O)N(c1c(F)c(F)nc(F)c1F)C2=O [Example 2, 4-isopropyl-6-methoxy-2-(2,3,5,6-tetrafluoro-4-pyridyl)-1,2-benzisothiazol-3(2H)-one 1,1-dioxide] | 7.42 |
| COc1cc2c(c(C(C)C)c1OC)C(=O)N(c1c(F)c(F)nc(F)c1F)S2(=O)=O [Example 3] | 7.32 |
| COc1cc(OC)c2c(c1)S(=O)(=O)N(c1c(F)c(F)nc(F)c1F)C2=O [Example 4] | 8.40 |
| COc1ccc2c(c1OC)C(=O)N(c1c(F)c(F)nc(F)c1F)S2(=O)=O [Example 5] | 7.82 |
| CCCc1c(OC)c(OC)cc2c1C(=O)N(c1c(F)c(F)nc(F)c1F)S2(=O)=O [Example 6] | 7.80 |
| COc1cccc2c1C(=O)N(c1c(F)c(F)nc(F)c1F)S2(=O)=O [Example 7] | 8.19 |
| CCOc1cccc2c1C(=O)N(c1c(F)c(F)nc(F)c1F)S2(=O)=O [Example 8] | 8.85 |
| CC(C)Oc1cccc2c1C(=O)N(c1c(F)c(F)nc(F)c1F)S2(=O)=O [Example 9] | 6.85 |
| COc1ccc2c(c1)S(=O)(=O)N(c1c(F)c(F)nc(F)c1F)C2=O [Example 10A] | 7.13 |
| CC(C)c1cccc2c1C(=O)N(c1c(F)c(F)nc(F)c1F)S2(=O)=O [Example 10] | 7.00 |
| CC(C)c1cc(O)cc2c1C(=O)N(c1c(F)c(F)nc(F)c1F)S2(=O)=O [Example 11, 4-isopropyl-6-hydroxy-2-(2,3,5,6-tetrafluoro-4-pyridyl)-1,2-benzisothiazol-1,2-benzisothiazol-3(2H)-one 1,1-dioxide] | 5.70 |
| CC(C)Oc1cc(C(C)C)c2c(c1)S(=O)(=O)N(c1c(F)c(F)nc(F)c1F)C2=O [Example 12, 4-isopropyl-6-isopropoxy-2-(2,3,5,6-tetrafluoro-4-pyridyl)-1.2-benzisothiazol-3(2H)-one 1,1-dioxide] | 7.30 |
